Experimental data reported in paper PMC9127186, “Molecular Basis Underlying Hepatobiliary and Renal Excretion of Phenolic Acids of Salvia miltiorrhiza Roots (Danshen)” (Frontiers in Pharmacology, 2022).

Tests used:
[1] = biological target: T1, human NTCP (Homo sapiens, UniProt Q14973); conditions: 10 min, 100 μM
T1 sequence (Q14973 1-349): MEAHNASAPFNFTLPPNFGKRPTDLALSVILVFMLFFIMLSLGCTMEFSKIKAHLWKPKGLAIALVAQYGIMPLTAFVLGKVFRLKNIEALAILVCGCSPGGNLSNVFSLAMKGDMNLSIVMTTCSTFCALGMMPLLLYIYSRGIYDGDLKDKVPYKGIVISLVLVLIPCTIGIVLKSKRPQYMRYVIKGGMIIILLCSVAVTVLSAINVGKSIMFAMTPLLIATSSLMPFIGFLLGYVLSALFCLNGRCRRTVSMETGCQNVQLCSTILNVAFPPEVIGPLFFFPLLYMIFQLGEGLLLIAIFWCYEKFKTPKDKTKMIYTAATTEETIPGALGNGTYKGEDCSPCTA

[2] = biological target: T2, rat Octn2 (Rattus norvegicus, UniProt O70594); conditions: 10 min, 100 μM
T2 sequence (O70594 1-557): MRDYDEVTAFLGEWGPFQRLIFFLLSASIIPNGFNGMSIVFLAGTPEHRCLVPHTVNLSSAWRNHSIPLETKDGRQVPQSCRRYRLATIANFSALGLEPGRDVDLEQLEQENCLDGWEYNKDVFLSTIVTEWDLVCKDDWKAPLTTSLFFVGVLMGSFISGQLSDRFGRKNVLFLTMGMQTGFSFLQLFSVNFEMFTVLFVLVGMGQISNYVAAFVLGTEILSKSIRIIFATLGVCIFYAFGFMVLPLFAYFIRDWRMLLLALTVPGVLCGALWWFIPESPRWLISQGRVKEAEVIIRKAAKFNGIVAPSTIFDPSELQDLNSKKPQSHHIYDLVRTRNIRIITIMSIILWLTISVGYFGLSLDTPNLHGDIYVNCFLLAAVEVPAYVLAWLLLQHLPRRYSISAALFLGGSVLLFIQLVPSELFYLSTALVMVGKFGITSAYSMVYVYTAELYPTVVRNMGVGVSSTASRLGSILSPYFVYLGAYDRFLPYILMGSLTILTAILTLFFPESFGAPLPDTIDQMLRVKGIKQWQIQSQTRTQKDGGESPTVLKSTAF

[3] = biological target: T3, human OCT2 (Homo sapiens, UniProt O15244); conditions: 10 min, 100 μM
T3 sequence (O15244 1-555): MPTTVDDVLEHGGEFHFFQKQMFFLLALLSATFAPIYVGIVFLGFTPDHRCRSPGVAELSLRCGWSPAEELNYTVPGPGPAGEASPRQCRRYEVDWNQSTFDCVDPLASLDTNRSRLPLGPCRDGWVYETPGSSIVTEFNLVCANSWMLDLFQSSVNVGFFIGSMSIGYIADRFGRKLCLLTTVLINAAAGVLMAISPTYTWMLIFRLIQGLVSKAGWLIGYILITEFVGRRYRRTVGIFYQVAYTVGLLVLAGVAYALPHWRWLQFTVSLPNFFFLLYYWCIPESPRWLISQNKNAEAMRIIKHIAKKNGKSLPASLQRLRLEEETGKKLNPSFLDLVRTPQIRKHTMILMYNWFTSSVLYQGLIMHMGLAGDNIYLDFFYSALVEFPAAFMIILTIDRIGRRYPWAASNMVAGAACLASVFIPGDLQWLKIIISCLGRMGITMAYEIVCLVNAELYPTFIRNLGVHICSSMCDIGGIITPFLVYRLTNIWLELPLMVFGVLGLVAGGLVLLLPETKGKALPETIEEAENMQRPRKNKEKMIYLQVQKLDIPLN

[4] = biological target: T4, rat Pept1 (Rattus norvegicus, UniProt P51574); conditions: 10 min, 100 μM, pH 6
T4 sequence (P51574 1-710): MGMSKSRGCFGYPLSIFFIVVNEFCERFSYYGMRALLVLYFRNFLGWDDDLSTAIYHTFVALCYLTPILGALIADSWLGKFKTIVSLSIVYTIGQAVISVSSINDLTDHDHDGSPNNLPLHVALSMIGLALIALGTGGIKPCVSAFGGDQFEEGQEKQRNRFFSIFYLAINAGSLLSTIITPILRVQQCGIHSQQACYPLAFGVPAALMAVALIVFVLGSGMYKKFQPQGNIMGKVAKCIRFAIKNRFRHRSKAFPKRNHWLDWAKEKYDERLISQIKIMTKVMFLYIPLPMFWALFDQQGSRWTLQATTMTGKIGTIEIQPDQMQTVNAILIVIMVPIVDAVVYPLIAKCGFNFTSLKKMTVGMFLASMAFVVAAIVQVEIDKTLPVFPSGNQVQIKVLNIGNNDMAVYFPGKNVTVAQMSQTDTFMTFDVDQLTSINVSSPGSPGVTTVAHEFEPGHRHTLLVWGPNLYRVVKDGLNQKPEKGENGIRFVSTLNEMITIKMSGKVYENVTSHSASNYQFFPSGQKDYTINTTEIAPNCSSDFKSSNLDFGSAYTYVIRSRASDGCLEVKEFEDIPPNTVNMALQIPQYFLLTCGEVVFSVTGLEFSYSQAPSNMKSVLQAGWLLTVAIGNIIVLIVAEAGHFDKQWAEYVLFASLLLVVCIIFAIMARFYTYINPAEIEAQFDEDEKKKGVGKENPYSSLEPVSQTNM

[5] = biological target: T5, human OCT1 (Homo sapiens, UniProt O15245); conditions: 10 min, 100 μM
T5 sequence (O15245 1-554): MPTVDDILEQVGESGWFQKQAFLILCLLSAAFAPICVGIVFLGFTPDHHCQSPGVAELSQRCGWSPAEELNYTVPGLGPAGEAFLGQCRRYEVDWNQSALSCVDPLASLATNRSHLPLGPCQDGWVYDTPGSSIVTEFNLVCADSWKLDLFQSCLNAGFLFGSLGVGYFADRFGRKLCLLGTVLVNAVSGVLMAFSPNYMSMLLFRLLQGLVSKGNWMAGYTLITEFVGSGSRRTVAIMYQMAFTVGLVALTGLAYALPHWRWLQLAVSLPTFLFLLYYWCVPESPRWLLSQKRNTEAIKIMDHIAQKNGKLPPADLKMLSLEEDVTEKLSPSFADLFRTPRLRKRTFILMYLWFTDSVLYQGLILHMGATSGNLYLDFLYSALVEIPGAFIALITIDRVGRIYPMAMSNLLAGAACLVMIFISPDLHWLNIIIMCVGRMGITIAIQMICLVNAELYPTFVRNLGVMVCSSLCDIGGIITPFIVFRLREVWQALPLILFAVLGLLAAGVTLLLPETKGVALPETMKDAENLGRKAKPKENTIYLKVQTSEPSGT

Compound: O=C(/C=C/c1ccc(O)c(O)c1)O[C@H](Cc1ccc(O)c(O)c1)C(=O)O [Rosmarinic acid, rosmarinic acid]
- TransportTC/TransportMC ratio (net transport ratio) [1]: 2.76 ± 0.36
- TransportTC/TransportMC ratio (net transport ratio) [2]: 1.14 ± 0.04
- TransportTC/TransportMC ratio (net transport ratio) [3]: 0.85 ± 0.29
- TransportTC/TransportMC ratio (net transport ratio) [4]: 1.14 ± 0.13
- TransportTC/TransportMC ratio (net transport ratio) [5]: 1.46 ± 0.57

Compound: O=C(/C=C/c1ccc(O)c(O)c1/C=C/c1ccc(O)c(O)c1)O[C@H](Cc1ccc(O)c(O)c1)C(=O)O [Salvianolic acid A, salvianolic acid A]
- TransportTC/TransportMC ratio (net transport ratio) [1]: 0.93 ± 0.11
- TransportTC/TransportMC ratio (net transport ratio) [2]: 0.95 ± 0.44
- TransportTC/TransportMC ratio (net transport ratio) [3]: 0.93 ± 0.32
- TransportTC/TransportMC ratio (net transport ratio) [4]: 1.32 ± 0.13
- TransportTC/TransportMC ratio (net transport ratio) [5]: 1.04 ± 0.32
